A word on the EC50: it is the concentration at which the effect is half-maximal.

Some results are limits rather than exact numbers.

In this assay the test system is IRF3. The assay is described as follows: IRF3 activation assay in THP-1 Dual cells. Type of assay: cell-based. The conditions noted are these: Homo sapiens, THP-1, Table 4C; read-out: THP1 IRF3 EC50. Summed up:
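THP-1 Dual cells (100,000/well) were treated with serially diluted compound for 24 h at 37° C, 5% CO2. IRF3 reporter activity in supernatant was read with QUANTI-Blue as absorbance at 620-655 nm after 2 h, with untreated cells as negative control. EC50 came from fitting percent control activity against log concentration.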
On to `CCn1nc(C)cc1C(=O)Nc1nc2cc(C(N)=O)cc(OC)c2n1C/C=C/Cn1c2nc(-c3cc(C)nn3CC)ncc2c2cc(C(N)=O)cc(OCCCNC(=O)CCCC(=O)O)c21` [Example S51, (E)-5-(3-(6-carbamoyl-9-(4-(5-carbamoyl-2-(1-ethyl-3-methyl-1H-pyrazole-5-carboxamido)-7-methoxy-1H-benzo[d]imidazol-1-yl)but-2-enyl)-2-(1-ethyl-3-methyl-1H-pyrazol-5-yl)-9H-pyrimido[4,5-b]indol-8-yloxy)propylamino)-5-oxopentanoic acid], for which the EC50 is at most 50 nM.
Turning to `CCn1nc(C)cc1C(=O)Nc1nc2cc(C(N)=O)cc(OC)c2n1C/C=C/Cn1c2nc(-c3cc(C)nn3CC)ncc2c2cc(C(N)=O)cc(OCCCNC(=O)OCCC(=O)O)c21` [Example S52, (E)-3-(3-(6-carbamoyl-9-(4-(5-carbamoyl-2-(1-ethyl-3-methyl-1H-pyrazole-5-carboxamido)-7-methoxy-1H-benzo[d]imidazol-1-yl)but-2-enyl)-2-(1-ethyl-3-methyl-1H-pyrazol-5-yl)-9H-pyrimido[4,5-b]indol-8-yloxy)propylcarbamoyloxy)propanoic acid], the concentration for a half-maximal effect (EC50) is at most 50 nM.
Consider `CCn1nc(C)cc1C(=O)Nc1nc2cc(C(N)=O)cc(OCCCO)c2n1C/C=C/Cn1c2nc(-c3cc(C)nn3CC)ncc2c2cc(C(N)=O)cc(OCCCNC(=O)CCCC(=O)O)c21` [Example S53, (E)-5-(3-(6-carbamoyl-9-(4-(5-carbamoyl-2-(1-ethyl-3-methyl-1H-pyrazole-5-carboxamido)-7-(3-hydroxypropoxy)-1H-benzo[d]imidazol-1-yl)but-2-enyl)-2-(1-ethyl-3-methyl-1H-pyrazol-5-yl)-9H-pyrimido[4,5-b]indol-8-yloxy)propylamino)-5-oxopentanoic acid], for which the EC50 is at most 50 nM.
Regarding `CCn1nc(C)cc1C(=O)Nc1nc2cc(C(N)=O)cc(OCCCO)c2n1C/C=C/Cn1c2nc(-c3cc(C)nn3CC)ncc2c2cc(C(N)=O)cc(OCCCNC(=O)OCCC(=O)O)c21` [Example S54, (E)-3-(3-(6-carbamoyl-9-(4-(5-carbamoyl-2-(1-ethyl-3-methyl-1H-pyrazole-5-carboxamido)-7-(3-hydroxypropoxy)-1H-benzo[d]imidazol-1-yl)but-2-enyl)-2-(1-ethyl-3-methyl-1H-pyrazol-5-yl)-9H-pyrimido[4,5-b]indol-8-yloxy)propylcarbamoyloxy)propanoic acid], the concentration for a half-maximal effect (EC50) was at most 50 nM.
Take `CCn1nc(C)cc1C(=O)Nc1nc2cc(C(N)=O)cc(OCCCOC)c2n1C/C=C/Cn1c2nc(-c3cc(C)nn3CC)ncc2c2cc(C(N)=O)cc(OCCCNC(=O)CCCC(=O)O)c21` [Example S55, (E)-5-(3-(6-carbamoyl-9-(4-(5-carbamoyl-2-(1-ethyl-3-methyl-1H-pyrazole-5-carboxamido)-7-(3-methoxypropoxy)-1H-benzo[d]imidazol-1-yl)but-2-enyl)-2-(1-ethyl-3-methyl-1H-pyrazol-5-yl)-9H-pyrimido[4,5-b]indol-8-yloxy)propylamino)-5-oxopentanoic acid]: the EC50 is at most 50 nM.
Consider `CCn1nc(C)cc1C(=O)Nc1nc2cc(C(N)=O)cc(OCCCOC)c2n1C/C=C/Cn1c2nc(-c3cc(C)nn3CC)ncc2c2cc(C(N)=O)cc(OCCCNC(=O)OCCC(=O)O)c21` [Example S56, (E)-3-(3-(6-carbamoyl-9-(4-(5-carbamoyl-2-(1-ethyl-3-methyl-1H-pyrazole-5-carboxamido)-7-(3-methoxypropoxy)-1H-benzo[d]imidazol-1-yl)but-2-enyl)-2-(1-ethyl-3-methyl-1H-pyrazol-5-yl)-9H-pyrimido[4,5-b]indol-8-yloxy)propylcarbamoyloxy)propanoic acid], for which the 50% effective concentration (EC50) was at most 50 nM.
As to `CCn1nc(C)cc1C(=O)Nc1nc2cc(C(N)=O)cc(OCCCOC)c2n1C/C=C/Cn1c2nc(-c3cc(C)nn3CC)ncc2c2cc(C(N)=O)cc(OCCCOC(=O)NCCC(=O)O)c21` [Example S57, (E)-3-((3-(6-carbamoyl-9-(4-(5-carbamoyl-2-(1-ethyl-3-methyl-1H-pyrazole-5-carboxamido)-7-(3-methoxypropoxy)-1H-benzo[d]imidazol-1-yl)but-2-enyl)-2-(1-ethyl-3-methyl-1H-pyrazol-5-yl)-9H-pyrimido[4,5-b]indol-8-yloxy)propoxy)carbonylamino)propanoic acid], the EC50 fell in the range of 50 to 200 nM.
Regarding `CCn1nc(C)cc1C(=O)Nc1nc2cc(C(N)=O)cc(OCCCOC)c2n1C/C=C/Cn1c2nc(-c3cc(C)nn3CC)ncc2c2cc(C(N)=O)cc(OCCOCCOCCC(=O)O)c21` [Example S58, (E)-3-(2-(2-(6-carbamoyl-9-(4-(5-carbamoyl-2-(1-ethyl-3-methyl-1H-pyrazole-5-carboxamido)-7-(3-methoxypropoxy)-1H-benzo[d]imidazol-1-yl)but-2-enyl)-2-(1-ethyl-3-methyl-1H-pyrazol-5-yl)-9H-pyrimido[4,5-b]indol-8-yloxy)ethoxy)ethoxy)propanoic acid], the concentration for a half-maximal effect (EC50) lay within 50 to 200 nM.
Take `CCn1nc(C)cc1C(=O)Nc1nc2cc(C(N)=O)cc(OCCCOC)c2n1C/C=C/Cn1c2nc(-c3cc(C)nn3CC)ncc2c2cc(C(N)=O)cc(OCCOCCOCCOCCC(=O)O)c21` [Example S59, (E)-3-(2-(2-(2-(6-carbamoyl-9-(4-(5-carbamoyl-2-(1-ethyl-3-methyl-1H-pyrazole-5-carboxamido)-7-(3-methoxypropoxy)-1H-benzo[d]imidazol-1-yl)but-2-enyl)-2-(1-ethyl-3-methyl-1H-pyrazol-5-yl)-9H-pyrimido[4,5-b]indol-8-yloxy)ethoxy)ethoxy)ethoxy)propanoic acid]: the concentration for a half-maximal effect (EC50) lay in the range of 50 to 200 nM.
`CCn1nc(C)cc1C(=O)Nc1nc2cc(C(N)=O)cc(OC)c2n1C/C=C/Cn1c2nc(-c3cc(C)nn3CC)ncc2c2cc(C(N)=O)cc(OCCC3CCN(CCCC(=O)O)CC3)c21` [Example S60, (E)-4-(4-(2-(6-carbamoyl-9-(4-(5-carbamoyl-2-(1-ethyl-3-methyl-1H-pyrazole-5-carboxamido)-7-methoxy-1H-benzo[d]imidazol-1-yl)but-2-enyl)-2-(1-ethyl-3-methyl-1H-pyrazol-5-yl)-9H-pyrimido[4,5-b]indol-8-yloxy)ethyl)piperidin-1-yl)butanoic acid]: the EC50 lay within 50 to 200 nM.
The value for `CCn1nc(C)cc1C(=O)Nc1nc2cc(C(N)=O)cc(OC)c2n1C/C=C/Cn1c2nc(-c3cc(C)nn3CC)ncc2c2cc(C(N)=O)cc(OCCC3CCN(C(=O)OCC(=O)O)CC3)c21` [Example S61] was 50 to 200 nM; that for `CCn1nc(C)cc1C(=O)Nc1nc2cc(C(N)=O)cc(OCCCO)c2n1C/C=C/Cn1c2nc(-c3cc(C)nn3CC)ncc2c2cc(C(N)=O)cc(OCCCOC(=O)NCCC(=O)O)c21` [Example S62, (E)-3-((3-(6-carbamoyl-9-(4-(5-carbamoyl-2-(1-ethyl-3-methyl-1H-pyrazole-5-carboxamido)-7-(3-hydroxypropoxy)-1H-benzo[d]imidazol-1-yl)but-2-enyl)-2-(1-ethyl-3-methyl-1H-pyrazol-5-yl)-9H-pyrimido[4,5-b]indol-8-yloxy)propoxy)carbonylamino)propanoic acid] was 50 to 200 nM.

Values taken from patent US11596692B1 (Incyte Corporation, priority 2018, dated 2023).
